According to ChEMBL document CHEMBL3259522, “Synthesis and biological evaluation of some 2-(3,5-dimethyl-1H-pyrazol-1-yl)-1-arylethanones: antibacterial, DNA photocleavage, and anticancer activities” (2014):
Values after ≈ are worked out from the molar mass of the structure shown. Active and inactive are the calls of the source. The rule behind the calls is not given here.

Legend:
Escherichia coli [1] = test: Antibacterial activity against Escherichia coli assessed as diameter of growth inhibition zone after 24 hrs by two fold serial dilution method; format: functional
Staphylococcus aureus [2] = test: Antibacterial activity against Staphylococcus aureus assessed as diameter of growth inhibition zone after 24 hrs by two fold serial dilution method; format: functional
Enterococcus [3] = test: Antibacterial activity against Enterococcus assessed as diameter of growth inhibition zone after 24 hrs by two fold serial dilution method; format: functional
Escherichia coli [4] = test: Antibacterial activity against Escherichia coli assessed as growth inhibition after 24 hrs by two fold serial dilution method; format: functional
Staphylococcus aureus [5] = test: Antibacterial activity against Staphylococcus aureus assessed as growth inhibition after 24 hrs by two fold serial dilution method; format: functional
Enterococcus [6] = test: Antibacterial activity against Enterococcus assessed as growth inhibition after 24 hrs by two fold serial dilution method; format: functional
[7] = Induction of DNA degradation in supercoiled plasmid DNA (unknown origin) by agarose gel electrophoresis in absence of UV light
[8] = Induction of DNA degradation in open circular plasmid DNA (unknown origin) by agarose gel electrophoresis in absence of UV light
[9] = Induction of DNA photocleavage in supercoiled plasmid DNA (unknown origin) at 60 ug by agarose gel electrophoresis in presence of UV light
[10] = Induction of DNA photocleavage in open circular plasmid DNA (unknown origin) at 60 ug by agarose gel electrophoresis in presence of UV light
[11] = Induction of DNA photocleavage in supercoiled plasmid DNA (unknown origin) at 30 ug by agarose gel electrophoresis in presence of UV light
[12] = Induction of DNA photocleavage in open circular plasmid DNA (unknown origin) at 30 ug by agarose gel electrophoresis in presence of UV light
[13] = Induction of DNA photocleavage in supercoiled plasmid DNA (unknown origin) at 15 ug by agarose gel electrophoresis in presence of UV light
[14] = Induction of DNA photocleavage in open circular plasmid DNA (unknown origin) at 15 ug by agarose gel electrophoresis in presence of UV light
[15] = Induction of DNA photocleavage in supercoiled plasmid DNA (unknown origin) at 5 ug by agarose gel electrophoresis in presence of UV light
[16] = Induction of DNA photocleavage in open circular plasmid DNA (unknown origin) at 5 ug by agarose gel electrophoresis in presence of UV light
[17] = Induction of DNA photocleavage in supercoiled plasmid DNA (unknown origin) at 2.5 ug by agarose gel electrophoresis in presence of UV light
[18] = Induction of DNA photocleavage in open circular plasmid DNA (unknown origin) at 2.5 ug by agarose gel electrophoresis in presence of UV light
[19] = Induction of DNA photocleavage in supercoiled plasmid DNA (unknown origin) at 1 ug by agarose gel electrophoresis in presence of UV light
[20] = Induction of DNA photocleavage in open circular plasmid DNA (unknown origin) at 1 ug by agarose gel electrophoresis in presence of UV light
HCT-116 [21] = test: Anticancer activity against human HCT116 cells assessed as cell viability after 48 hrs by MTT assay; format: functional, cell-based
HCT-116 [22] = test: Anticancer activity against human HCT116 cells assessed as cell viability at 10 uM after 48 hrs by MTT assay; format: functional; details: HCT-116, 48 h, read-out: Activity
HCT-116 [23] = test: Anticancer activity against human HCT116 cells assessed as cell viability at 25 uM after 48 hrs by MTT assay; format: functional; details: HCT-116, 48 h, read-out: Activity
HCT-116 [24] = test: Anticancer activity against human HCT116 cells assessed as cell viability at 50 uM after 48 hrs by MTT assay; format: functional; details: HCT-116, 48 h, read-out: Activity
SK-OV-3 = test: Anticancer activity against human SKOV3 cells assessed as cell viability after 72 hrs by MTT assay; format: functional, cell-based
HT-29 = test: Anticancer activity against human HT-29 cells assessed as cell viability at 50 uM after 72 hrs by MTT assay; format: functional, cell-based
DU-145 = test: Anticancer activity against human DU145 cells assessed as cell viability at 50 uM after 72 hrs by MTT assay; format: functional, cell-based
A549 = test: Anticancer activity against human A549 cells assessed as cell viability after 72 hrs by MTT assay; format: functional, cell-based
Pseudomonas aeruginosa [25] = test: Antibacterial activity against Pseudomonas aeruginosa assessed as diameter of growth inhibition zone after 24 hrs by two fold serial dilution method; format: functional
Klebsiella pneumoniae [26] = test: Antibacterial activity against Klebsiella pneumoniae assessed as diameter of growth inhibition zone after 24 hrs by two fold serial dilution method; format: functional
Pseudomonas aeruginosa [27] = test: Antibacterial activity against Pseudomonas aeruginosa assessed as growth inhibition after 24 hrs by two fold serial dilution method; format: functional
Klebsiella pneumoniae [28] = test: Antibacterial activity against Klebsiella pneumoniae assessed as growth inhibition after 24 hrs by two fold serial dilution method; format: functional
Escherichia coli [29] = test: Antibacterial activity against Escherichia coli assessed as growth inhibition after 24 hrs by two fold serial dilution method relative to ampicillin; format: functional; design: scale not given: the % may be the effect or the level left
Pseudomonas aeruginosa [30] = test: Antibacterial activity against Pseudomonas aeruginosa assessed as growth inhibition after 24 hrs by two fold serial dilution method relative to ampicillin; format: functional; design: scale not given: the % may be the effect or the level left

Row | SMILES | diameter of the inhibition zone (DIZ) (Escherichia coli [1]) [mm] | diameter of the inhibition zone (DIZ) (Staphylococcus aureus [2]) [mm] | diameter of the inhibition zone (DIZ) (Enterococcus [3]) [mm] | MIC (Escherichia coli [4]) [µg/mL] | MIC (Staphylococcus aureus [5]) [µg/mL] | MIC (Enterococcus [6]) [µg/mL] | Activity [7] | Activity [8] | Activity [9] | Activity [10] | Activity [11] | Activity [12] | Activity [13] | Activity [14] | Activity (HCT-116 [21]) | diameter of the inhibition zone (DIZ) (Pseudomonas aeruginosa [25]) [mm] | diameter of the inhibition zone (DIZ) (Klebsiella pneumoniae [26]) [mm] | MIC (Pseudomonas aeruginosa [27]) [µg/mL] | MIC (Klebsiella pneumoniae [28]) [µg/mL] | further results
1 | Cc1cc(C)n(CC(=O)c2ccc([N+](=O)[O-])cc2)n1 | 11 | 13 | 14 | 256 (≈ 987 µM) | 128 (≈ 494 µM) | 256 (≈ 987 µM) | inactive | inactive | Active | Active | Active | Active | Active | Active | inactive | – | – | – | – | Activity [15]: Active; Activity [16]: Active; Activity [17]: Active; Activity [18]: Active; Activity [19]: Active; Activity [20]: Active
2 | Cc1cc(C)n(CC(=O)c2cccc(Cl)c2)n1 | 10 | – | 10 | 512 (≈ 2060 µM) | – | 512 (≈ 2060 µM) | inactive | inactive | – | – | – | – | – | – | inactive | – | – | – | – | –
3 | Cc1cc(C)n(CC(=O)c2cccc3ccccc23)n1 | – | – | 12 | – | – | 256 (≈ 968 µM) | inactive | inactive | Active | Active | – | – | – | – | – | – | – | – | – | viability at 10 µM (HCT-116 [22]): 73.4%; viability at 25 µM (HCT-116 [23]): 60.8%; viability at 50 µM (HCT-116 [24]): 34.6%; Activity (SK-OV-3): inactive; Activity (HT-29): inactive; Activity (DU-145): inactive; Activity (A549): Active
4 | Cc1cc(C)n(CC(=O)c2ccc(F)cc2F)n1 | 9 | 10 | 10 | 512 (≈ 2050 µM) | 256 (≈ 1020 µM) | 512 (≈ 2050 µM) | inactive | inactive | Active | Active | Active | Active | inactive | inactive | inactive | – | – | – | – | Activity [15]: inactive; Activity [16]: inactive; Activity [17]: inactive; Activity [18]: inactive; Activity [19]: inactive; Activity [20]: inactive
5 | Cc1cc(C)n(CC(=O)c2ccc(Cl)cc2)n1 | 14 | 12 | 12 | 256 (≈ 1030 µM) | 256 (≈ 1030 µM) | 512 (≈ 2060 µM) | inactive | inactive | – | – | – | – | – | – | inactive | – | – | – | – | –
6 | Cc1cc(C)n(CC(=O)c2ccccc2)n1 | 11 | 10 | 13 | 512 (≈ 2390 µM) | 512 (≈ 2390 µM) | 512 (≈ 2390 µM) | inactive | inactive | – | – | – | – | – | – | – | 13 | 10 | 64 (≈ 299 µM) | 64 (≈ 299 µM) | viability at 10 µM (HCT-116 [22]): 81.4%; viability at 25 µM (HCT-116 [23]): 55.4%; viability at 50 µM (HCT-116 [24]): 52.4%; Activity (SK-OV-3): inactive; Activity (HT-29): inactive; Activity (DU-145): inactive; Activity (Escherichia coli [29]): 12.5%; Activity (Pseudomonas aeruginosa [30]): 12.5%
7 | Cc1cc(C)n(CC(=O)c2ccc(F)cc2)n1 | 15 | 11 | 15 | 64 (≈ 276 µM) | 256 (≈ 1100 µM) | 64 (≈ 276 µM) | inactive | inactive | Active | Active | Active | Active | Active | Active | inactive | 11 | 9 | 256 (≈ 1100 µM) | 256 (≈ 1100 µM) | Activity (Escherichia coli [29]): 12.5%; Activity (Pseudomonas aeruginosa [30]): 12.5%
8 | Cc1cc(C)n(CC(=O)c2ccccc2F)n1 | 11 | 10 | 10 | 256 (≈ 1100 µM) | 256 (≈ 1100 µM) | 256 (≈ 1100 µM) | inactive | inactive | – | – | – | – | – | – | inactive | 11 | – | 256 (≈ 1100 µM) | – | –
9 | CC1(C)S[C@@H]2[C@H](NC(=O)[C@H](N)c3ccccc3)C(=O)N2[C@H]1C(=O)O [AMPICILLIN] | 16 | 16 | 18 | 8 (≈ 22.9 µM) | 2 (≈ 5.72 µM) | 2 (≈ 5.72 µM) | – | – | – | – | – | – | – | – | – | 14 | 13 | 8 (≈ 22.9 µM) | 2 (≈ 5.72 µM) | –
10 | Cc1ccc(C(=O)Cn2nc(C)cc2C)cc1 | 11 | 11 | 15 | 512 (≈ 2240 µM) | 256 (≈ 1120 µM) | 64 (≈ 280 µM) | inactive | inactive | – | – | – | – | – | – | inactive | – | – | – | – | –
